# Laboratory results: publication PMC4500398, “All-Purpose Containers? Lipid-Binding Protein – Drug Interactions” (PLoS ONE, 2015)
# Tests used:
# [1] = target: T1, c-FABPL (fatty acid-binding protein from G. gallus liver) (Gallus gallus, UniProt P80226); test: […]-NMR titration with […]-enriched ligand; parameters: gene FABP1; apo protein, purified from chicken liver
# T1 sequence (P80226 2-126): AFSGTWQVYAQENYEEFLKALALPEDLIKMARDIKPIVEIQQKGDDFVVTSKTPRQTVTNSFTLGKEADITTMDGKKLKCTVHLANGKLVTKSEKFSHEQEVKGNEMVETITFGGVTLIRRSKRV
# [2] = target: T1, c-FABPL (fatty acid-binding protein from G. gallus liver); test: […]-NMR (T1, n.O.e.) and displacement by cholate; parameters: gene FABP1; purified from chicken liver, delipidated
# [3] = target: T1, c-FABPL (fatty acid-binding protein from G. gallus liver); test: […]-NMR titration with […]-enriched ligand; […]-NMR competition; parameters: gene FABP1; apo protein, purified from chicken liver
# [4] = target: T1, c-FABPL (fatty acid-binding protein from G. gallus liver); test: […]-NMR titration (n.O.e., T1) and competition with cholate; parameters: gene FABP1; purified from chicken liver, delipidated
structure (smiles),measurement,setting,value
C[C@H](CCC(=O)NCC(=O)O)[C@H]1CC[C@H]2[C@@H]3[C@H](O)C[C@@H]4C[C@H](O)CC[C@]4(C)[C@H]3C[C@H](O)[C@]12C [glycocholate],13C-NMR titration with 13C-enriched ligand,[1],"The titration indicates two sites of comparable affinity for cholate, and of different affinity for glycocholate"
"CCCCCCCCCCCCCCC(F)C(=O)O (stereo not shown) [16–17, 2-fluoropalmitate]","19F-NMR (T1, n.O.e.) and displacement by cholate",[2],only using a tenfold excess of cholate the ligand was completely removed from the protein
"C[C@H](CCC(=O)O)[C@H]1CC[C@H]2[C@@H]3[C@H](O)C[C@@H]4C[C@H](O)CC[C@]4(C)[C@H]3C[C@H](O)[C@]12C [compound 7, cholate]",13C-NMR titration with 13C-enriched ligand; 19F-NMR competition,[3],"The titration indicates two sites of comparable affinity for cholate, and of different affinity for glycocholate"
"CC(C)n1c(/C=C/[C@@H](O)C[C@@H](O)CC(=O)O)c(-c2ccc(F)cc2)c2ccccc21 (relative stereo) [compound 14, fluvastatin]","19F-NMR titration (n.O.e., T1) and competition with cholate",[4],Symmetric competition experiments between fluvastatin and cholate
